In US8545816B2, “Benzoic acid ester compounds, compositions, uses and methods related thereto” (Ferrer Internacional, S.A., priority 2005, dated 2013):

Assays:
[1] = Phototransposition under UVB lamp irradiation (UV absorption spectrum / TLC follow-up); assay type: physicochemical; conditions: for time to complete phototransposition (conversion to the dibenzoylmethane / benzophenone sunscreen): solution in methanol
Description: A solution of 5 mg of 1-phenylvinyl 4-methoxybenzoate in 10 mL of methanol was irradiated with UVB lamps ([…]) for 20 minutes at 35° C. […] The conversion to benzoyl-4-methoxybenzoyl-methane was observed from the beginning, being the complete conversion in 5 minutes.
A sample of 4 mL of a solution containing 0.231 mg of 1-(4-methoxyphenyl)-vinyl 4-tert-butylbenzoate in 50 mL of methanol was irradiated with UVB lamps (60 W·m^−2) for 10 minutes at 35° C. The conversion to avobenzone was completed in 5 minutes.
A sample of 4 mL of a solution containing 0.400 mg of 1-(4-tert-butylphenyl)-vinyl 4-methoxybenzoate in 50 mL of methanol was irradiated with UVB lamps (60 W·m^−2) for 10 minutes at 35° C. The conversion to avobenzone was completed in 5 minutes.
A solution containing 5 mg of 4-benzoyloxy-2-methoxy-benzenesulfonic acid in 10 mL of methanol was irradiated with UVB lamps (60 W·m^−2) for 20 minutes at 35° C. The absorption spectrum was then recorded minute by minute. The conversion to sulisobenzone was complete in 10 minutes.
A sample of 4 mL of a solution containing 0.395 mg of 3-diethylaminophenyl benzoate in 50 mL of methanol was irradiated with UVB lamps (60 W·m^−2) for 20 minutes at 35° C. The phototransformation to 4-diethylamino-2-hydroxybenzophenone was completed in 10 minutes.
A sample of 5 mg of 3-methoxyphenyl benzoate in 10 mL of polydimethylsiloxane (viscosity 10000 cSt) was irradiated with UVB lamps (60 W·m^−2) for 15 hours and 20 minutes at 35° C. The phototransformation to oxybenzone was completed in 40 minutes.
A solution of 5 mg of 1-phenylvinyl 4-tert-butylbenzoate in 10 mL of tert-butanol was irradiated with UVB lamps (60 W·m^−2) for 5 hours at 35° C.

[2] = cited from earlier work; for Absorbance: UV region absorbed; for Protection nm: wavelength range of protection

| Compound | time to complete phototransposition (conversion to the dibenzoylmethane / benzophenone sunscreen) ([1]; UVB lamps 60 W·m^−2, 35° C.) [min] | Absorbance [2] | Protection nm [2] | further results |
| --- | --- | --- | --- | --- |
| C=C(OC(=O)c1ccc(C(C)(C)C)cc1)c1ccc(OC)cc1 [1-(4-Methoxyphenyl)-vinyl 4-tert-butylbenzoate] | 5 | – | – | – |
| C=C(OC(=O)c1ccc(OC)cc1)c1ccc(C(C)(C)C)cc1 [1-(4-Tert-butylphenyl)-vinyl 4-methoxybenzoate] | 5 | – | – | – |
| C=C(OC(=O)c1ccc(OC)cc1)c1ccccc1 [1-phenylvinyl 4-methoxybenzoate, 1-Phenylvinyl 4-methoxybenzoate] | 5 | – | – | crude reaction spectrum after irradiation ([1]; methanol, UVB lamps, 20 minutes, 35° C.): new absorption band in UVA zone |
| C=C(OC(=O)c1ccc(C(C)(C)C)cc1)c1ccccc1 [1-phenylvinyl 4-tert-butylbenzoate, 1-Phenylvinyl 4-tert-butyl-benzoate] | – | – | – | products detected after irradiation (thin layer chromatography, 1H-NMR) ([1]; tert-butanol, UVB lamps 60 W·m^−2, 5 hours, 35° C.): Some different compounds were detected by thin layer chromatography (hexane/ethyl acetate 2:1), one of said compounds being benzoyl-4-tert-butylbenzoylmethane |
| CCN(CC)c1cccc(OC(=O)c2ccccc2)c1 [3-diethylaminophenyl benzoate, 3-Diethylaminophenyl benzoate] | 10 | – | – | – |
| COc1cccc(OC(=O)c2ccccc2)c1 [3-methoxyphenyl benzoate, 3-Methoxyphenyl benzoate] | – | – | – | time to complete phototransformation to oxybenzone ([1]; in polydimethylsiloxane (viscosity 10000 cSt), UVB lamps 60 W·m^−2, 35° C.): 40 min |
| COc1cc(OC(=O)c2ccccc2)ccc1S(=O)(=O)O [4-Benzoyloxy-2-methoxybenzene-sulfonic acid] | 10 | – | – | – |
| COc1ccc(C(=O)CC(=O)c2ccc(C(C)(C)C)cc2)cc1 [Avobenzone, 4-tert-butyl-4′-methoxydibenzoylmethane] | – | UVA I^1 (340-400 nm) | 320-400 nm | – |
| COc1ccc(C(=O)c2ccccc2)c(O)c1 [Oxybenzone, 2-hydroxy-4-methoxybenzophenone] | – | UVB, UVA II^2 | 270-350 nm | – |
| COc1cc(O)c(C(=O)c2ccccc2)cc1S(=O)(=O)O [Sulisobenzone, 5-benzoyl-4-hydroxy-2-methoxy-benzenesulfonic acid] | – | UVB, UVA II^2 | 260-375 nm | – |
